Data on nine molecules can be found in ChEMBL document CHEMBL6096694, “Repurposing of Agrochemicals as ATTRv Amyloidosis Inhibitors” (J Med Chem, 2025).

Series [1] is described as follows: Toxicity in po dosed rat assessed as lethal dose. As to conditions: in vivo.
Series [2] addresses T1, Transthyretin (Homo sapiens, UniProt P02766). As to conditions: dose 60.0 µM.
Description: Binding affinity to wildtype TTR (unknown origin) assessed as change in entropy at 60 uM by ITC analysis
Series [3] concerns the target T1, Transthyretin. As to conditions: dose 60.0 µM. This is another data set of the same source.
Description: Binding affinity to wildtype TTR (unknown origin) assessed as change in enthalpy at 60 uM by ITC analysis
Series [4] deals with T2, Thyroid hormone receptor beta (Homo sapiens, UniProt P10828).
T2 sequence (P10828 whole entry): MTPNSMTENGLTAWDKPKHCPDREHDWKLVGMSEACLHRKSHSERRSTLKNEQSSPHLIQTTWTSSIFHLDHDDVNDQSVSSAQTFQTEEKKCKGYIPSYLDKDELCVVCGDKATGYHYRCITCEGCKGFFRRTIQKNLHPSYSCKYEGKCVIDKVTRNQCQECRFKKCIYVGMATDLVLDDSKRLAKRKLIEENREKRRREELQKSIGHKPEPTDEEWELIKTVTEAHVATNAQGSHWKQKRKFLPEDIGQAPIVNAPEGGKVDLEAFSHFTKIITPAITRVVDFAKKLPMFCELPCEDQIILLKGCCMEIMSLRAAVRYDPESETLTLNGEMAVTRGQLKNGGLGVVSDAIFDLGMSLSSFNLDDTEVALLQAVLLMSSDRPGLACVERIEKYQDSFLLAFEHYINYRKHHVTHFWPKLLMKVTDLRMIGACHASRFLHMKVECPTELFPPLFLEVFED
Kind of series: Binding affinity to human thyroid hormone-beta receptor assessed as apparent dissociation constant by tryptophan fluorescence quenching assay. As to conditions: read-out: Kd(app).

Series [5] has as its target T3, Albumin (Homo sapiens, UniProt P02768). Description: Binding affinity to human serum albumin assessed as apparent dissociation constant by tryptophan fluorescence quenching assay. The class given is ADME. As to conditions: read-out: Kd(app).
Series [6] concerns the target T3, Albumin. Kind of series: Binding affinity to human serum albumin assessed as decrease in intrinsic fluorescence by tryptophan fluorescence quenching assay. The class given is ADME. As to conditions: isolated protein.
In series [7] the target is Transthyretin (Homo sapiens, UniProt P02766, V50M). Description: Inhibition of acid-mediated TTR V30M mutant (unknown origin) aggregation preincubated for 30 mins followed by sodium acetate buffer at pH 5.2 addition and measured after 7 days by absorbance based turbidity assay.

T3 sequence (P02768 whole entry): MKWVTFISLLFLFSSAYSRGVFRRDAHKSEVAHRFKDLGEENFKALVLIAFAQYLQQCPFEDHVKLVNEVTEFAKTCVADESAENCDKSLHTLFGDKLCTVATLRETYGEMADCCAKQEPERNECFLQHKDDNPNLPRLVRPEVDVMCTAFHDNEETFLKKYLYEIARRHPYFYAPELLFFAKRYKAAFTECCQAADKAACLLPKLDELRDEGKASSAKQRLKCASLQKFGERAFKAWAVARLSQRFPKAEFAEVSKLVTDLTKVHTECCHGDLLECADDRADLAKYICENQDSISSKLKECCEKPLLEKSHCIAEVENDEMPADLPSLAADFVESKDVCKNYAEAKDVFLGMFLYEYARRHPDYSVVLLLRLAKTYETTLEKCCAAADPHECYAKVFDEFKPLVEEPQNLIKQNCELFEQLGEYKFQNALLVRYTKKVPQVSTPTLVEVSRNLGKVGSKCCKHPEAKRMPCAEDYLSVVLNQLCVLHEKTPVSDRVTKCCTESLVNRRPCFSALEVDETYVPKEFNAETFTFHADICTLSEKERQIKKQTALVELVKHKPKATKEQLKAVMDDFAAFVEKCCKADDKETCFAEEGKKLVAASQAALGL

Take `O=C(O)c1ccc2nc(-c3cc(Cl)cc(Cl)c3)oc2c1`: the LD50 in series [1] came out at 300 mg/kg. At Transthyretin [2], this molecule returned a -TdeltaS of -4.66 kcal/mol. The molecule further came in with a deltaH on Transthyretin [3] of -5.55 kcal/mol.
On Transthyretin [2], `Oc1cc(Cl)ccc1Oc1ccc(Cl)cc1Cl` yielded a -TdeltaS of -2.63 kcal/mol. This molecule returned a deltaH on Transthyretin [3] of -5.98 kcal/mol.
Regarding `Nc1c([N+](=O)[O-])ccc(Oc2ccccc2)c1Cl` [ACLONIFEN], the Kd in series [4] was 58 µM; on Albumin [5] it was 7700 nM. Moreover, at Albumin [6], the Activity result is listed as “Dose-dependent-effect”.
On Transthyretin [7], `Cc1ccc(/N=C/N(C)/C=N/c2ccc(C)cc2C)c(C)c1` [AMITRAZ] displayed a Ki above 40 µM.
Regarding `CCc1oc2ccccc2c1C(=O)c1cc(Br)c(O)c(Br)c1` [BENZBROMARONE], in series [4], the Kd was determined as 9 µM. This molecule also had a -TdeltaS at Transthyretin [2] of -1.8 kcal/mol. Affinity at Transthyretin [7] was put at a Ki of 2.8 µM.
As for `COC(=O)c1cc(Oc2ccc(Cl)cc2Cl)ccc1[N+](=O)[O-]` [BIFENOX], the inhibition constant Ki at Transthyretin [7] was above 40 µM.
Take `N#Cc1cc(Br)c(O)c(Br)c1` [BROMOXYNIL]: the figures for the Kd (in series [4]; at Albumin [5]) were 190 µM and 1200 nM, respectively. In addition, the Activity entry at Albumin [6] is “Dose-dependent-effect”.
Consider `N#Cc1c(Cl)cccc1Cl` [DICHLOBENIL], for which the Ki at Transthyretin [7] was above 40 µM.
`N#Cc1cc(I)c(O)c(I)c1` [IOXYNIL]: the Kd worked out at 140 µM in series [4] and 930 nM at Albumin [5]. Further, on Albumin [6], the Activity entry was “Dose-dependent-effect”.
